For test [1], the target named is T1, BMP2KA (Homo sapiens, UniProt Q9NSY1).
T1 construct: purchased in-house DSF kinase panel (SGC-style construct names; the trailing letter is the construct ID)
The test is described as follows: DSF Tm panel. Type of test: binding. To be noted: 10 μM compound.

The target of test [2] is T2, MAPK10A (Homo sapiens, UniProt P53779).
T2 construct: purchased in-house DSF kinase panel (SGC-style construct names; the trailing letter is the construct ID)
Put plainly: DSF Tm panel. Type of test: binding. To be noted: 10 μM compound.

For test [3], the target named is T3, MARK3A (Homo sapiens, UniProt P27448).
T3 construct: purchased in-house DSF kinase panel (SGC-style construct names; the trailing letter is the construct ID)
The test is described as follows: DSF Tm panel. The note with it: 10 μM compound. The class given is binding.

Test [4] concerns the target T4, SRPK1A (Homo sapiens, UniProt Q96SB4).
T4 construct: purchased in-house DSF kinase panel (SGC-style construct names; the trailing letter is the construct ID)
The test is described as follows: DSF Tm panel. The class given is binding. To be noted: 10 μM compound.

For test [5], the target named is T5, FGFR2A (Homo sapiens, UniProt P21802).
T5 construct: purchased in-house DSF kinase panel (SGC-style construct names; the trailing letter is the construct ID)
Put plainly: DSF Tm panel. To be noted: 10 μM compound. The class given is binding.

Test [6] concerns RPS6KA1A. Put plainly: DSF Tm panel. The class given is binding. The note with it: 10 μM compound.
Test [7] has as its target T6, DYRK1AA (Homo sapiens, UniProt Q13627).
T6 construct: purchased in-house DSF kinase panel (SGC-style construct names; the trailing letter is the construct ID)
Put plainly: DSF Tm panel. The class given is binding. The note with it: 10 μM compound.

The target of test [8] is T7, VRK1A (Homo sapiens, UniProt Q99986).
T7 construct: purchased in-house DSF kinase panel (SGC-style construct names; the trailing letter is the construct ID)
T7 sequence (Q99986 1-396): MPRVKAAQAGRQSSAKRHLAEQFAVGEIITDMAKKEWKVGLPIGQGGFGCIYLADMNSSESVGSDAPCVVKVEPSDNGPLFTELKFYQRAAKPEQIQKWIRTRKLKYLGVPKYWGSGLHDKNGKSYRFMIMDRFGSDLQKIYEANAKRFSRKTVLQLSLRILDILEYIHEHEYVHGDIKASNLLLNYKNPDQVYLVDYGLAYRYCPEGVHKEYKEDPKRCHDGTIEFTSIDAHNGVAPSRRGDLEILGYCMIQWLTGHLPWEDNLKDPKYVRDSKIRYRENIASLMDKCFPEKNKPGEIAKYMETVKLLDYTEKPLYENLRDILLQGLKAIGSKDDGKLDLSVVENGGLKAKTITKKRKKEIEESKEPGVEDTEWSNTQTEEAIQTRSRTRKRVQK
The test is described as follows: DSF Tm panel. Type of test: binding. To be noted: 10 μM compound.

Test [9] addresses T8, STK4 (STK4A) (Homo sapiens, UniProt Q13043).
T8 construct: purchased in-house DSF kinase panel (SGC-style construct names; the trailing letter is the construct ID)
T8 sequence (Q13043 1-311): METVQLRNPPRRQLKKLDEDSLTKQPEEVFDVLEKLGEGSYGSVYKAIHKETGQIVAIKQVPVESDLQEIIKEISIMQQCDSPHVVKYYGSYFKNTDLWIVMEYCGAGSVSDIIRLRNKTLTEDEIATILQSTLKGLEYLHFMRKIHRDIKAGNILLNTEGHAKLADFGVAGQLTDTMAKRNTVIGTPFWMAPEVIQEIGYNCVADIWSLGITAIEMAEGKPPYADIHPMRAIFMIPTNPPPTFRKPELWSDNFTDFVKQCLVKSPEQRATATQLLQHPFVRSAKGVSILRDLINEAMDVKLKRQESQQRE
Put plainly: DSF Tm panel. Type of test: binding. The note with it: 10 μM compound.

The target of test [10] is T9, CDKL1A (Homo sapiens, UniProt Q00532).
T9 construct: purchased in-house DSF kinase panel (SGC-style construct names; the trailing letter is the construct ID)
The test is described as follows: DSF Tm panel. The class given is binding. The note with it: 10 μM compound.

The target of test [11] is T10, SLK (Homo sapiens, UniProt Q9H2G2). Put plainly: NanoBRET target engagement assay. To be noted: HEK293T cells. The class given is cell-based. On the set-up: has a greater impact on the full-length protein than on the kinase domains; host or cells: HEK293T (ATCC CRL-3216). (In general: In BRET a luciferase serves as donor, and the signal depends on an acceptor being close.)

Test [12] concerns the target T11, STK10 (Homo sapiens, UniProt O94804).
T11 construct: purchased in-house DSF kinase panel (SGC-style construct names; the trailing letter is the construct ID)
The test is described as follows: PhosphoSens in vitro activity assay. To be noted: ATP 160 μM. The class given is biochemical.

Test [13] has as its target T12, EPHA2 (EPHA2A) (Homo sapiens, UniProt P29317).
T12 construct: purchased in-house DSF kinase panel (SGC-style construct names; the trailing letter is the construct ID)
T12 sequence (P29317 596-900): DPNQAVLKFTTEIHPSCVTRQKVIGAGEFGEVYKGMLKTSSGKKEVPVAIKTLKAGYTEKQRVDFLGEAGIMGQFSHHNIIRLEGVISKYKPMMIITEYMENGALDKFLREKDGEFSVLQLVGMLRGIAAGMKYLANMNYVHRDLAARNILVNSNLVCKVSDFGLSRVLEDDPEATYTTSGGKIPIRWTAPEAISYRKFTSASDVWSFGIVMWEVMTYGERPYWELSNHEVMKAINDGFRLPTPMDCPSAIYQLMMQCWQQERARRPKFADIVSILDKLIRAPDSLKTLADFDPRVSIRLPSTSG
The test is described as follows: DSF Tm panel. Type of test: binding. The note with it: 10 μM compound.

Test [14] concerns CDC42BPAA. Put plainly: DSF Tm panel. The class given is binding. To be noted: 10 μM compound.
Test [15] concerns the target T13, MAPK14A (Homo sapiens, UniProt Q16539).
T13 construct: purchased in-house DSF kinase panel (SGC-style construct names; the trailing letter is the construct ID)
The test is described as follows: DSF Tm panel. The note with it: 10 μM compound. Type of test: binding.

The target of test [16] is T14, MAP3K5A (Homo sapiens, UniProt Q99683).
T14 construct: purchased in-house DSF kinase panel (SGC-style construct names; the trailing letter is the construct ID)
Put plainly: DSF Tm panel. The class given is binding. The note with it: 10 μM compound.

Test [17] has as its target T15, MARK4A (Homo sapiens, UniProt Q96L34).
T15 construct: purchased in-house DSF kinase panel (SGC-style construct names; the trailing letter is the construct ID)
Put plainly: DSF Tm panel. The class given is binding. The note with it: 10 μM compound.

Test [18] has as its target T10, SLK. Put plainly: DSF Tm panel. On the set-up: purchased in-house DSF kinase panel (SGC-style construct names; the trailing letter is the construct ID). The class given is binding. The note with it: 10 μM compound.
For test [19], the target named is T16, PIM1 (PIM1A) (Homo sapiens, UniProt P11309).
T16 construct: purchased in-house DSF kinase panel (SGC-style construct names; the trailing letter is the construct ID)
The test is described as follows: DSF Tm panel. The class given is binding. To be noted: 10 μM compound.

The target of test [20] is T17, DCAMKL1A (Homo sapiens, UniProt O15075).
T17 construct: purchased in-house DSF kinase panel (SGC-style construct names; the trailing letter is the construct ID)
T17 sequence (O15075 372-649): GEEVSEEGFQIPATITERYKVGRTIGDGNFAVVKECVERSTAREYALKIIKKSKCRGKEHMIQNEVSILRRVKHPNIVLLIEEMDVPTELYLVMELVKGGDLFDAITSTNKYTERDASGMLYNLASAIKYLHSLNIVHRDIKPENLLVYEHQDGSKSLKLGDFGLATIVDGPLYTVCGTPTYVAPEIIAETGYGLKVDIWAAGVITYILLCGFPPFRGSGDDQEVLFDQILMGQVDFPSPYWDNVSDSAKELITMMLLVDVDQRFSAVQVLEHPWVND
The test is described as follows: DSF Tm panel. The class given is binding. The note with it: 10 μM compound.

The target in test [21] is T18, FESA (Homo sapiens, UniProt P07332).
T18 construct: purchased in-house DSF kinase panel (SGC-style construct names; the trailing letter is the construct ID)
Put plainly: DSF Tm panel. Type of test: binding. To be noted: 10 μM compound.

Test [22] concerns the target T19, DAPK3 (DAPK3A) (Homo sapiens, UniProt O43293).
T19 construct: purchased in-house DSF kinase panel (SGC-style construct names; the trailing letter is the construct ID)
Put plainly: DSF Tm panel. The class given is binding. To be noted: 10 μM compound.

For test [23], the target named is T20, CAMK2DA (Homo sapiens, UniProt Q13557).
T20 construct: purchased in-house DSF kinase panel (SGC-style construct names; the trailing letter is the construct ID)
The test is described as follows: DSF Tm panel. The class given is binding. To be noted: 10 μM compound.

Test [24] addresses T21, MAPK1A (Homo sapiens, UniProt P28482).
T21 construct: purchased in-house DSF kinase panel (SGC-style construct names; the trailing letter is the construct ID)
The test is described as follows: DSF Tm panel. The class given is binding. To be noted: 10 μM compound.

One may read the ΔTm as the change in melting temperature against a reference sample. Usually EC50 stands for the concentration that produces a half-maximal response. By IC50 is commonly meant the concentration needed to halve the response being measured. A low value points to higher potency.

T16 sequence (P11309 whole entry): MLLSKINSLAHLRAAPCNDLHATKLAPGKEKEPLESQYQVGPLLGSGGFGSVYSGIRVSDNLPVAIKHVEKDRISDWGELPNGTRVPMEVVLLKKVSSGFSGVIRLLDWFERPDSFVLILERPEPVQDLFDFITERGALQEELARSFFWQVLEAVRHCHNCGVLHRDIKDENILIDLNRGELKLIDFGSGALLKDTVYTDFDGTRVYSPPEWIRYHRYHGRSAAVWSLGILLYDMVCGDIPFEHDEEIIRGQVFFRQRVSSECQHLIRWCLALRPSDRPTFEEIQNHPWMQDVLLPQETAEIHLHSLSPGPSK
T9 sequence (Q00532 1-303): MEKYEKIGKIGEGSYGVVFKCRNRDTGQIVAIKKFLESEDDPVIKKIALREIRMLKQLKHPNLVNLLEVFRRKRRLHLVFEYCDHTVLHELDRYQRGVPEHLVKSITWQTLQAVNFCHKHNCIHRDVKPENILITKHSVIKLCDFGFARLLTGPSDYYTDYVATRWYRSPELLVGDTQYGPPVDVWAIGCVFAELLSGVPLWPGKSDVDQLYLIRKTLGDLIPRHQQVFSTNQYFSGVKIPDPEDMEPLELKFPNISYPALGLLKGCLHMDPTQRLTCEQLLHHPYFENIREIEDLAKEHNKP
T1 sequence (Q9NSY1 38-345): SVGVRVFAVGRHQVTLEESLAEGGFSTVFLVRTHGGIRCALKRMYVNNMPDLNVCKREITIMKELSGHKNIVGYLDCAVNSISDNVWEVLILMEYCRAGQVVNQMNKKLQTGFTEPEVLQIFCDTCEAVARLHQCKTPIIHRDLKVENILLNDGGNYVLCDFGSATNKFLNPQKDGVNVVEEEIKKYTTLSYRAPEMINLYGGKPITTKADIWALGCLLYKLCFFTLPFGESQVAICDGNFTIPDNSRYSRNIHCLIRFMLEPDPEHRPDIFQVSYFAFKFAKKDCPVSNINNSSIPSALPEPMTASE
T19 sequence (O43293 whole entry): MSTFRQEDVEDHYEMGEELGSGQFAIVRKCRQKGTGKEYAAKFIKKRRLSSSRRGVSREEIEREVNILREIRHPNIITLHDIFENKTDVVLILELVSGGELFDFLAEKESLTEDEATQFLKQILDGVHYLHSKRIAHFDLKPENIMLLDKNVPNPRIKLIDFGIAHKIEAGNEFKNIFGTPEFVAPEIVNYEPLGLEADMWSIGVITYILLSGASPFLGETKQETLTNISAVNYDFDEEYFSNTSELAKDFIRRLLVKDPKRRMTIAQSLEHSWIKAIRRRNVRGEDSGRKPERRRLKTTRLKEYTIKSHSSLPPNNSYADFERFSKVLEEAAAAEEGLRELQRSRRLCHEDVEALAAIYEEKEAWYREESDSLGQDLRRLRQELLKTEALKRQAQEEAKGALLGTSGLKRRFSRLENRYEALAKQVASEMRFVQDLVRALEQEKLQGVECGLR
T20 sequence (Q13557 11-309): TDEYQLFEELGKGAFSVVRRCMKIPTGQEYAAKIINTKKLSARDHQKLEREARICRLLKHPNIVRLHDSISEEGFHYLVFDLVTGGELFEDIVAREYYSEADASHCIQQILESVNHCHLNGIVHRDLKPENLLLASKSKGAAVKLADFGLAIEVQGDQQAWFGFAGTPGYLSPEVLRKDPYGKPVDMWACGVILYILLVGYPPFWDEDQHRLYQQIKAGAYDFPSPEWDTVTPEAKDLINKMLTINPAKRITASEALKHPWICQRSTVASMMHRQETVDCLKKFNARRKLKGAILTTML
T4 sequence (Q96SB4 80-653): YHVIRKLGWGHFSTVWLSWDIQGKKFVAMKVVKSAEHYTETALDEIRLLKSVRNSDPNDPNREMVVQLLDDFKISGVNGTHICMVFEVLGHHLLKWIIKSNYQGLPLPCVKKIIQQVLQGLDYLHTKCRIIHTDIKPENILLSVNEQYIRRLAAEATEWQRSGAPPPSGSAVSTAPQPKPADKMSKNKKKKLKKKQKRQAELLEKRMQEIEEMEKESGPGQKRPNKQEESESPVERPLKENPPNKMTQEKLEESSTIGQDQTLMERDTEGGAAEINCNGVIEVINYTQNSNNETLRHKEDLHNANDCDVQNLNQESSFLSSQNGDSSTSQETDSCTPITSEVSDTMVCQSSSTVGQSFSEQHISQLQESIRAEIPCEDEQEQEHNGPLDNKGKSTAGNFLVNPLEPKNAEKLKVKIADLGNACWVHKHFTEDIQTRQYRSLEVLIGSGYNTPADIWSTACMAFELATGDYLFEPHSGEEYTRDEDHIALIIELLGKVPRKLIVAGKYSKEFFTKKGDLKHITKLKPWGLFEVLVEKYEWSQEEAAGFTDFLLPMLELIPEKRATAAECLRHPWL
T18 sequence (P07332 whole entry): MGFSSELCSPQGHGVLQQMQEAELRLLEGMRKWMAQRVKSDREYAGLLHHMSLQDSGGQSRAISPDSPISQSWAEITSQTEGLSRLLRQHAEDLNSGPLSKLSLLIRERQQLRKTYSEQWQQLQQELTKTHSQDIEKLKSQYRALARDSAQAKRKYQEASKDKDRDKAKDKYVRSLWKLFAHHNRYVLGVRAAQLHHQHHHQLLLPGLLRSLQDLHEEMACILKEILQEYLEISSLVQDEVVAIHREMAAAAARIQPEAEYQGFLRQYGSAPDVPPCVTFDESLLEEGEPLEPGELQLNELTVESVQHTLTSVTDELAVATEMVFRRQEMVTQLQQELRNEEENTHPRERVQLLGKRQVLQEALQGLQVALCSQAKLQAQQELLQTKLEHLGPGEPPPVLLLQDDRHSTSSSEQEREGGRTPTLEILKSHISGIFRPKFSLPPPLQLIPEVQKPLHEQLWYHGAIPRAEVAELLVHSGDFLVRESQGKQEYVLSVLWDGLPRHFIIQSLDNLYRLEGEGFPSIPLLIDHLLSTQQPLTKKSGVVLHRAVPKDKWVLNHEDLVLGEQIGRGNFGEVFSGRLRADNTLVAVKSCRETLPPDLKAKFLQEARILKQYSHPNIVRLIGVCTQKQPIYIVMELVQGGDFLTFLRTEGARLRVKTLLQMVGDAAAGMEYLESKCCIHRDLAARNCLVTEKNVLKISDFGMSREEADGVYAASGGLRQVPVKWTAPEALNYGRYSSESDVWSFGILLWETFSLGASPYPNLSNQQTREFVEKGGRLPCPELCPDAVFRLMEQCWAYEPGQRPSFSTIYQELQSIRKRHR
T14 sequence (Q99683 659-951): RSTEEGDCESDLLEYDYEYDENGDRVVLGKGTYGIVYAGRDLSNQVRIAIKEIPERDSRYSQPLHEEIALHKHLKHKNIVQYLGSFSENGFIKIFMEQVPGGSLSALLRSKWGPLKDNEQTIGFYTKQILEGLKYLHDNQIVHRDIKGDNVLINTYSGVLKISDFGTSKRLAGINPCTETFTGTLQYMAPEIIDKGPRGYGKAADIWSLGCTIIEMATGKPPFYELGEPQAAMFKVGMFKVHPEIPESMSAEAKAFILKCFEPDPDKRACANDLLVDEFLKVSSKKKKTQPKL
T3 sequence (P27448 56-307): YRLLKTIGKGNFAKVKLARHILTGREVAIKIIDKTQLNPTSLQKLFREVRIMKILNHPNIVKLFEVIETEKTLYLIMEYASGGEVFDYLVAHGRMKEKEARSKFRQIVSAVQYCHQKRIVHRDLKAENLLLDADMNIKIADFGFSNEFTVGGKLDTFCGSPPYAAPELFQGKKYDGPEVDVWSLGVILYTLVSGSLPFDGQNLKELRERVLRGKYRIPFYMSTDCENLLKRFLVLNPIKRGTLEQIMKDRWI
T5 sequence (P21802 458-770): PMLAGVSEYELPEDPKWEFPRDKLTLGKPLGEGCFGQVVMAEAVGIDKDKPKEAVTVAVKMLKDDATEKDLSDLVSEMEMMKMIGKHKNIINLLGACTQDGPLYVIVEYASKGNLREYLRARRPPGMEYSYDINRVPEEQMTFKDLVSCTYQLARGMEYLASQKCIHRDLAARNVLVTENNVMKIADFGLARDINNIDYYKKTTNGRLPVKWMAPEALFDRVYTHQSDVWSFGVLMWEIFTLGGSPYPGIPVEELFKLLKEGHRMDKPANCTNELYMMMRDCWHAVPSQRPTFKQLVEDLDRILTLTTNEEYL
T21 sequence (P28482 whole entry): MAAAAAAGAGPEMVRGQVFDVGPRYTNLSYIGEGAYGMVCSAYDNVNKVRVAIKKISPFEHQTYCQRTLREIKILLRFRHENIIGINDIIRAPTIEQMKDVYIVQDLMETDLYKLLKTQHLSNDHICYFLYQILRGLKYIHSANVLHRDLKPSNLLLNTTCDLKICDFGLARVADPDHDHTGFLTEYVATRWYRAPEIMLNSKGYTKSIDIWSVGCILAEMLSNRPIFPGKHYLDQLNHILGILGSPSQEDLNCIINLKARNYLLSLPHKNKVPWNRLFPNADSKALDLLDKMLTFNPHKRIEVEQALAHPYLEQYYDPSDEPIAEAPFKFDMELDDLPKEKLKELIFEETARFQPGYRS
T11 sequence (O94804 18-317 limits assumed): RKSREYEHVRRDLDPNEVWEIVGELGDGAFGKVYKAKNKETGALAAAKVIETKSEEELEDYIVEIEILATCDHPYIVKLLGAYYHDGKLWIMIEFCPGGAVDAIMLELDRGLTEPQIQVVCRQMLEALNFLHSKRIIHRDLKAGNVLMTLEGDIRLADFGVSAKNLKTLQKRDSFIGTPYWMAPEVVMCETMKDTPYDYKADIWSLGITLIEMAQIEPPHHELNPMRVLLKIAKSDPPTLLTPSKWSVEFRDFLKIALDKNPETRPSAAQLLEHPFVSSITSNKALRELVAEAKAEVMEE
T15 sequence (Q96L34 59-310): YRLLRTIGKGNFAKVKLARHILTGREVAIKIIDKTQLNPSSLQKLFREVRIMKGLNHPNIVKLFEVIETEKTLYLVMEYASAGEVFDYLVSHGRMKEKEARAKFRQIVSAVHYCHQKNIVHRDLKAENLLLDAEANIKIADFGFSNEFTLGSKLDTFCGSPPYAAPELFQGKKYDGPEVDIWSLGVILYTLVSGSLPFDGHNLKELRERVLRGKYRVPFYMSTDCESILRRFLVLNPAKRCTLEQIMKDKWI

Regarding `COc1cc(CNC(=O)Nc2ccc3cc2OCCOCCNc2ccn4ncc-3c4n2)ccc1F` [compound 33], the ΔTm at 10 µM worked out at 10.2 °C in [1]; 0.7 °C in test [2]; 0.3 °C in test [3]; 0 °C in test [4]; 3.7 °C in [5]; 0.9 °C in test [7]. Besides, the ΔTm at 10 µM was 0.3 °C in [8]; 3.8 °C in test [9]; 0.5 °C in test [10]; 0.5 °C in [13]; 1.4 °C in test [15]; 2.8 °C in test [16]. Besides, the ΔTm at 10 µM amounted to 2.2 °C in test [17]; 2.4 °C in test [18]; 1.6 °C in test [19]; 2.2 °C in test [20]; 0.5 °C in test [21]; 2.1 °C in [22]. In addition, the ΔTm at 10 µM in [23] was determined as 2.4 °C; in test [24], 1.6 °C. Moreover, in test [6], the “ΔTm RPS6KA1A” value was 0,5 °C. In [11], the EC50 is > 50 µM. This compound registered an IC50 in test [12] of 2.34 ± 0.79 µM. In addition, the “ΔTm CDC42BPAA” value in test [14] was 0,1 °C.

Take `C[C@H](NC(=O)Nc1ccc2cc1OCCOCCNc1ccn3ncc-2c3n1)c1ccccc1` [compound 34]: the ΔTm at 10 µM in test [1] is 9.1 °C; in test [2], 0.1 °C; in test [3] it was 0 °C; in test [4] it was -0.1 °C; in test [5], 2.8 °C; in test [7] it was -0.1 °C. Further, the ΔTm at 10 µM in test [8] was 0 °C; in test [9], 2.7 °C; in test [10], 0.2 °C; in [13], 0.3 °C; in test [15], 1.3 °C; in test [16], 0.8 °C. Further, the ΔTm at 10 µM in [17] amounted to 0.9 °C; in [18] it was 1.6 °C; in test [19], 0.6 °C; in test [20] it was 1.9 °C; in test [21], 1.3 °C; in test [22] it was 1.8 °C. The ΔTm at 10 µM in test [23] is 2.2 °C; in test [24] it was 0.7 °C. Also, in test [6], the “ΔTm RPS6KA1A” value is 0,4 °C. Besides, the EC50 in [11] is > 50 µM. Further, in [12], it took 10.2 µM to reach half-maximal inhibition (IC50). For the same compound, the “ΔTm CDC42BPAA” value in test [14] is 0,1 °C.

Values taken from article PMC12621043, “Un-LOK-ing a New Approach for Conformational Selective Targeting of STK10 (LOK)” (ACS Medicinal Chemistry Letters, 2025).
